From patent US8044079B2, “Substituted oxindole derivatives, medicaments containing said derivatives and use thereof” (Abbott GmbH & Co. KG, priority 2005, dated 2011)

Molecular target: T1, human vasopressin V1b receptor (Homo sapiens, UniProt P47901)
T1 construct: expressed in transfected cells; host or cells: CHO-K1 (cell line hV1b_3H2_CHO), membrane preparation
T1 sequence (P47901 1-424): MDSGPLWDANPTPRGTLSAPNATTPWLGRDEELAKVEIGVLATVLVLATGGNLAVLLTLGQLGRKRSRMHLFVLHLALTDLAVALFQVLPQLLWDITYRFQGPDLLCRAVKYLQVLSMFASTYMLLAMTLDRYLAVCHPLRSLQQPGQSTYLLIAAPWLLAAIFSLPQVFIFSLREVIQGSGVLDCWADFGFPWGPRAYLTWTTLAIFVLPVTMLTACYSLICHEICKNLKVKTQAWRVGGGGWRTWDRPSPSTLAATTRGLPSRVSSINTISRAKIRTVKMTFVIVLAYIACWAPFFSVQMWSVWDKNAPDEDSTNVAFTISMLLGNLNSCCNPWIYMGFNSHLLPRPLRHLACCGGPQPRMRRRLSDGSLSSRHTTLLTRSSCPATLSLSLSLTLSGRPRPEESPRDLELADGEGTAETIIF
Assay: Vasopressin V1b receptor binding test
Settings: membranes of CHO-K1 cells with human V1b receptor, displacement of 1.5 nM 3H-AVP; for compounds with more than one stereogenic center the diastereomer with greater affinity
Summary of the method: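 Affinity constants (Ki) came from nonlinear regression of triplicate scintillation counts after filtration separated bound from free radioligand. Compounds competed at human V1b membranes for 60 min, room temperature, in pH 7.4 tris/MgCl2/BSA buffer with 2% DMSO; 1 μM AVP defined nonspecific binding.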

| Ki [nM] | SMILES |
| --- | --- |
| < 10 | COc1ccc(S(=O)(=O)N2C(=O)C(c3ccc(CN4CCN(CCO)CC4)cc3OC)(N3CCC[C@H]3c3ncco3)c3cc(Cl)c(F)cc32)cc1 (stereo partly drawn) [Example 212, 5-Chloro-6-fluoro-3-{4-[4-(2-hydroxyethyl)piperazin-1-ylmethyl]-2-methoxyphenyl}-1-(4-methoxybenzenesulfonyl)-3-((S)-2-oxazol-2-yl-pyrrolidin-1-yl)-1,3-dihydroindol-2-one] |
| < 10 | CCNCc1ccc(OC)c(C2(N3CCC[C@H]3c3ncon3)C(=O)N(S(=O)(=O)c3ccc(OC)cc3)c3ccc(Cl)cc32)c1 (stereo partly drawn) [Example 216, 5-Chloro-3-(5-ethylaminomethyl-2-methoxyphenyl)-1-(4-methoxybenzenesulfonyl)-3-((S)-2-[1,2,4]oxadiazol-3-yl-pyrrolidin-1-yl)-1,3-dihydroindol-2-one] |
| < 10 | CNCc1ccc(C2(N3C[C@H](O)C[C@H]3c3ncco3)C(=O)N(S(=O)(=O)c3ccc(OC)cc3)c3ccc(Cl)cc32)c(OC)c1 (stereo partly drawn) [Example 217, 5-Chloro-3-((2S,4R)-4-hydroxy-2-oxazol-2-yl-pyrrolidin-1-yl)-1-(4-methoxybenzenesulfonyl)-3-(2-methoxy-4-methylaminomethylphenyl)-1,3-dihydroindol-2-one] |
| 10 to 100 | COc1ccc(S(=O)(=O)N2C(=O)C(c3cc(CN4CCOCC4)ccc3OC)(N3C[C@H](O)C[C@H]3c3ncco3)c3cc(C#N)ccc32)cc1 (stereo partly drawn) [Example 220, 5-Cyano-3-((2S,4R)-4-hydroxy-2-oxazol-2-yl-pyrrolidin-1-yl)-1-(4-methoxybenzenesulfonyl)-3-(2-methoxy-5-morpholin-4-ylmethylphenyl)-1,3-dihydroindol-2-one] |
| < 10 | CCN1CCN(Cc2ccc(OC)c(C3(N4C[C@H](O)C[C@H]4c4ncco4)C(=O)N(S(=O)(=O)c4ccc(OC)cc4)c4ccc(C#N)cc43)c2)CC1 (stereo partly drawn) [Example 221, 5-Cyano-3-[5-(4-ethylpiperazin-1-ylmethyl)-2-methoxyphenyl]-3-((2S,4R)-4-hydroxy-2-oxazol-2-yl-pyrrolidin-1-yl)-1-(4-methoxybenzenesulfonyl)-2,3-dihydro-1H-indol-2-one] |
| 10 to 100 | COc1ccc(S(=O)(=O)N2C(=O)C(c3cc(CN4CCN(CCO)CC4)ccc3OC)(N3C[C@H](O)C[C@H]3c3ncco3)c3cc(C#N)ccc32)cc1 (stereo partly drawn) [Example 222, 5-Cyano-3-{5-[4-(2-hydroxyethyl)piperazin-1-ylmethyl]-2-methoxyphenyl}-3-((2S,4R)-4-hydroxy-2-oxazol-2-yl-pyrrolidin-1-yl)-1-(4-methoxybenzenesulfonyl)-2,3-dihydro-1H-indol-2-one] |
| < 10 | COc1ccc(S(=O)(=O)N2C(=O)C(c3cc(CN(C)C)ccc3OC)(N3C[C@H](OC)C[C@H]3c3ncco3)c3cc(Cl)ccc32)cc1 (stereo partly drawn) [Example 223, 5-Chloro-3-(5-dimethylaminomethyl-2-methoxyphenyl)-1-(4-methoxybenzenesulfonyl)-3-((2S,4R)-4-methoxy-2-oxazol-2-yl-pyrrolidin-1-yl)-1,3-dihydroindol-2-one] |
| < 10 | COc1ccc(S(=O)(=O)N2C(=O)C(c3cc(CN4CCN(C)CC4)ccc3OC)(N3C[C@H](OC)C[C@H]3c3ncco3)c3cc(Cl)ccc32)cc1 (stereo partly drawn) [Example 224, 5-Chloro-1-(4-methoxybenzenesulfonyl)-3-[2-methoxy-5-(4-methylpiperazin-1-ylmethyl)phenyl]-3-((2S,4R)-4-methoxy-2-oxazol-2-yl-pyrrolidin-1-yl)-1,3-dihydroindol-2-one] |
| 10 to 100 | COc1ccc(S(=O)(=O)N2C(=O)C(c3cc(CN4CCN(C)CC4)ccc3OC)(N3CCC[C@@]3(C)c3ncco3)c3cc(Cl)ccc32)cc1 (stereo partly drawn) [Example 225, 5-Chloro-1-(4-methoxybenzenesulfonyl)-3-[2-methoxy-5-(4-methylpiperazin-1-ylmethyl)phenyl]-3-((S)-2-methyl-2-oxazol-2-yl-pyrrolidin-1-yl)-1,3-dihydroindol-2-one] |
| < 10 | COc1ccc(S(=O)(=O)N2C(=O)C(c3cc(CN4CCN(CCO)CC4)ccc3OC)(N3CCC[C@@]3(C)c3ncco3)c3cc(Cl)ccc32)cc1 (stereo partly drawn) [Example 226, 5-Chloro-3-{5-[4-(2-hydroxyethyl)piperazin-1-ylmethyl]-2-methoxyphenyl}-1-(4-methoxybenzenesulfonyl)-3-((S)-2-methyl-2-oxazol-2-yl-pyrrolidin-1-yl)-1,3-dihydroindol-2-one] |
| < 10 | CNCc1ccc(OC)c(C2(N3CCC[C@@]3(C)c3ncco3)C(=O)N(S(=O)(=O)c3ccc(OC)cc3)c3ccc(Cl)cc32)c1 (stereo partly drawn) [Example 227, 5-Chloro-1-(4-methoxybenzenesulfonyl)-3-(2-methoxy-5-methylaminomethylphenyl)-3-((S)-2-methyl-2-oxazol-2-yl-pyrrolidin-1-yl)-1,3-dihydroindol-2-one] |
| 10 to 100 | COc1ccc(S(=O)(=O)N2C(=O)C(c3cc(CN4CCN(C)CC4)ccc3OC)(N3C[C@H](F)C[C@H]3c3ncco3)c3cc(C#N)ccc32)cc1 (stereo partly drawn) [Example 228, 5-Cyano-3-((2S,4R)-4-fluoro-2-oxazol-2-yl-pyrrolidin-1-yl)-1-(4-methoxybenzenesulfonyl)-3-[2-methoxy-5-(4-methylpiperazin-1-ylmethyl)phenyl]-1,3-dihydroindol-2-one] |
| 10 to 100 | COc1ccc(S(=O)(=O)N2C(=O)C(c3cc(CN4CCN(CCO)CC4)ccc3OC)(N3C[C@H](F)C[C@H]3c3ncco3)c3cc(C#N)ccc32)cc1 (stereo partly drawn) [Example 229, 5-Cyano-3-((2S,4R)-4-fluoro-2-oxazol-2-yl-pyrrolidin-1-yl)-3-{5-[4-(2-hydroxyethyl)piperazin-1-ylmethyl]-2-methoxyphenyl}-1-(4-methoxybenzenesulfonyl)-1,3-dihydroindol-2-one] |
| 10 to 100 | COc1ccc(S(=O)(=O)N2C(=O)C(c3cc(CN(C)C)ccc3OC)(N3C[C@H](F)C[C@H]3c3ncco3)c3cc(C#N)ccc32)cc1 (stereo partly drawn) [Example 230, 5-Cyano-3-(5-dimethylaminomethyl-2-methoxyphenyl)-3-((2S,4R)-4-fluoro-2-oxazol-2-yl-pyrrolidin-1-yl)-1-(4-methoxybenzenesulfonyl)-1,3-dihydroindol-2-one] |
| < 10 | CCNCc1ccc(OC)c(C2(N3CCC[C@@]3(C)c3ncco3)C(=O)N(S(=O)(=O)c3ccc(OC)cc3)c3ccc(Cl)cc32)c1 (stereo partly drawn) [Example 231, 5-Chloro-3-(5-ethylaminomethyl-2-methoxyphenyl)-1-(4-methoxybenzenesulfonyl)-3-((S)-2-methyl-2-oxazol-2-yl-pyrrolidin-1-yl)-1,3-dihydroindol-2-one] |
| < 10 | CCN1CCN(Cc2ccc(OC)c(C3(N4CCC[C@@]4(C)c4ncco4)C(=O)N(S(=O)(=O)c4ccc(OC)cc4)c4ccc(Cl)cc43)c2)CC1 (stereo partly drawn) [Example 232, 5-Chloro-3-[5-(4-ethylpiperazin-1-ylmethyl)-2-methoxyphenyl]-1-(4-methoxybenzenesulfonyl)-3-((S)-2-methyl-2-oxazol-2-yl-pyrrolidin-1-yl)-1,3-dihydroindol-2-one] |

| SMILES | Ki [nM] |
| --- | --- |
| COc1ccc(S(=O)(=O)N2C(=O)C(c3cc(CN4CCCC4)ccc3OC)(N3C[C@H](OC(C)(C)C)C[C@H]3c3ncco3)c3cc(Cl)ccc32)cc1 (stereo partly drawn) [Example 213, 3-((2S,4R)-4-tert-butoxy-2-oxazol-2-yl-pyrrolidin-1-yl)-5-chloro-1-(4-methoxybenzenesulfonyl)-3-(2-methoxy-5-pyrrolidin-1-ylmethylphenyl)-1,3-dihydroindol-2-one] | 10 to 100 |
| COc1ccc(S(=O)(=O)N2C(=O)C(c3cc(CN4CCN(C)CC4)ccc3OC)(N3C[C@H](OC(C)(C)C)C[C@H]3c3ncco3)c3cc(Cl)ccc32)cc1 (stereo partly drawn) [Example 214, 3-((2S,4R)-4-tert-butoxy-2-oxazol-2-yl-pyrrolidin-1-yl)-5-chloro-1-(4-methoxybenzenesulfonyl)-3-[2-methoxy-5-(4-methylpiperazin-1-ylmethyl)phenyl]-1,3-dihydroindol-2-one] | < 10 |
| COc1ccc(S(=O)(=O)N2C(=O)C(c3cc(CN4CCN(CCO)CC4)ccc3OC)(N3C[C@H](OC(C)(C)C)C[C@H]3c3ncco3)c3cc(Cl)ccc32)cc1 (stereo partly drawn) [Example 215, 5-Chloro-3-((2S,4R)-4-tert-butoxy-2-oxazol-2-yl-pyrrolidin-1-yl)-3-{5-[4-(2-hydroxyethyl)piperazin-1-ylmethyl]-2-methoxyphenyl}-1-(4-methoxybenzenesulfonyl)-1,3-dihydroindol-2-one] | 10 to 100 |
| COc1ccc(S(=O)(=O)N2C(=O)C(c3cc(CN(C)C)ccc3OC)(N3C[C@H](OC(C)(C)C)C[C@H]3c3ncco3)c3cc(Cl)ccc32)cc1 (stereo partly drawn) [Example 218, 3-((2S,4R)-4-tert-butoxy-2-oxazol-2-yl-pyrrolidin-1-yl)-5-chloro-3-(5-dimethylaminomethyl-2-methoxyphenyl)-1-(4-methoxybenzenesulfonyl)-1,3-dihydroindol-2-one] | 10 to 100 |
| CCNCc1ccc(OC)c(C2(N3C[C@H](OC(C)(C)C)C[C@H]3c3ncco3)C(=O)N(S(=O)(=O)c3ccc(OC)cc3)c3ccc(Cl)cc32)c1 (stereo partly drawn) [Example 219, 3-((2S,4R)-4-tert-butoxy-2-oxazol-2-yl-pyrrolidin-1-yl)-5-chloro-3-(5-ethylaminomethyl-2-methoxyphenyl)-1-(4-methoxybenzenesulfonyl)-1,3-dihydroindol-2-one] | < 10 |
